Data reported in patent US5232684A, “Labelled resiniferatoxin, compositions thereof, and methods for using the same” (priority 1990, dated 1993).
Read-outs that look alike come from different tables or passages of the source.

Tests used:
[1] = molecular target: T1, capsaicin receptor (rat DRG membranes) (Rattus norvegicus, UniProt O35433); test: biochemical; type: binding
T1 construct: membrane preparations from dorsal root ganglia (DRG) of female Sprague-Dawley rats; from tissue; host or cells: dorsal root ganglia of female Sprague-Dawley rats
T1 sequence (O35433 whole entry): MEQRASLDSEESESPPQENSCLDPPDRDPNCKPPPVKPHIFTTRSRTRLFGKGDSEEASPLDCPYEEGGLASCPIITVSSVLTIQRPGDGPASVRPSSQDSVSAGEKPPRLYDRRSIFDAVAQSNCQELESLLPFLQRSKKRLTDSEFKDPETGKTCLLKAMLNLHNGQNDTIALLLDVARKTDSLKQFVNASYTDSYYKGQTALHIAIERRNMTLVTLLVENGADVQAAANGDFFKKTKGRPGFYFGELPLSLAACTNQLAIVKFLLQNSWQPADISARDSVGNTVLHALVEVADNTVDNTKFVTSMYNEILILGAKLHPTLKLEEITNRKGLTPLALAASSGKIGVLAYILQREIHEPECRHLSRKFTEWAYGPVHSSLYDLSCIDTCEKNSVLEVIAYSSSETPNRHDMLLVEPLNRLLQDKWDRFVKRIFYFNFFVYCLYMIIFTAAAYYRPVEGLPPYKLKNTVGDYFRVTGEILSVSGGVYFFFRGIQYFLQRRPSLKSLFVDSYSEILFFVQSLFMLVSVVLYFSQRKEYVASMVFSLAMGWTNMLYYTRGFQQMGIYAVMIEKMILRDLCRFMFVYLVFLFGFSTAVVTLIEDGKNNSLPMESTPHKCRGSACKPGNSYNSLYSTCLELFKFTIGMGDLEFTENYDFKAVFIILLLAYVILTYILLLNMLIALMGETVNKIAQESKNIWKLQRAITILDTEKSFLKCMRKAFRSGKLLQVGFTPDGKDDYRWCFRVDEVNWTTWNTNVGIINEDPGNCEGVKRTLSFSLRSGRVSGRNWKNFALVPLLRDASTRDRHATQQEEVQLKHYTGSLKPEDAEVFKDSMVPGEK
Description: (§1) Membrane preparations are obtained from the DRG and Gasser ganglia of female Sprague-Dawley rats (250-300 g); animals are sacrificed by decapitation under ether anesthesia, the ganglia removed and collected into ice-cold disrupting buffer (5 mM KCl, 5.8 mM NaCl, 2 mM MgCl2, 12 mM glucose, 137 mM sucrose, 10 mM HEPES, 5 mM DTT, 2 mM EGTA, pH 7.4). After homogenization with the aid of a Polytron tissue homogenizer, samples are filtered over surgical gauze and then washed twice with the same buffer and stored at -70° C. Particulate fractions are obtained from other rat neural tissues (cerebellum, spinal cord, preoptic region, striatum, substantia nigra) and from DRG of pigs (Mt. Airy Locker Co., Mt. Airy, MD), sheep, cows (kindly provided by Dr. Solomon, USDA, Beltsville, MD), and chickens (Truslow Farms, Chesterton, MD) by a similar procedure.
(§2) The binding assays are carried out in a volume of 250 ul, containing assay buffer (same as the disrupting buffer but omitting DTT and EGTA and including 0.75 mM CaCl2), 26-30 ug of membrane protein and 0.25 mg/ml bovine serum albumin. […] Tubes are kept on ice while the additions are made. The assay mixture is incubated for 10 min at 37° C.; it is then cooled on ice. 150 ul of the mixture is pipetted onto Whatman GF/C or GF/F glass fiber filters presoaked with 10 mg/ml bovine serum albumin in 20 mM Tris-Cl (pH 7.4) and filtered immediately. An aliquot of 50 ul of the mixture is removed to determine total radioactivity. The filters are washed with 100 ml of ice-cold 20 mM Tris-Cl, pH 7 4, containing 0.1 mg/ml bovine serum albumin, and the bound radioactivity is determined by scintillation counting. Non-specific binding is determined in the presence of 100-1000 nM non-radioactive RTX.
(§3) Binding data from saturation experiments using increasing concentrations of hot ligand are analyzed using the collection of computer programs described by McPherson (McPherson, G.A., Analysis of radioligand binding experiments: a collection of computer programs for the IBM PC, J.Pharmacol.Methods, 14 (1985) 213-228).
(§4) Scatchard and Hill transformations are performed by the Equilibrium Binding Data Analysis program referred to as EBDA. Data are further analyzed by the curvilinear regression program LIGAND (Munson, R.J. and Rodbard, D., LIGAND: a versatile computerized approach for characterization of ligand-binding systems, Anal.Biochem, 107 (1980) 220-239).
RTX binding is also analyzed in the presence of a fixed, low (60 pM or 300 pM) concentration of [^3 H]RTX and increasing concentrations of non-radioactive RTX or other ligand. […] The Ki value for RTX is calculated from the relationship Ki =ID50 -L; the Ki values for other ligands are calculated from the general form of the equation (Cheng, Y.C. and Prusoff, W.H., Relation between the inhibition constant (Ki) and the concentration of inhibitor which causes 50 per cent inhibition (I50) of an enzymatic reaction, Biochem. Pharmacol., 22 (1973) 3099-3108) Ki =IC50 /(1+L/Kd) where L=concentration of labelled ligand and Kd =dissociation constant of radioactive ligand as determined in the saturation experiments using variable concentrations of hot ligand. Comparison of the quality of fit using single and multiple site competition models is performed by the LIGAND program.
[^3 H]RTX binding is examined using membrane preparations from dorsal root ganglia (DRG) of female Sprague-Dawley rats.

[2] = molecular target: T2, capsaicin receptor (pig DRG membranes) (Sus scrofa, UniProt F1RLJ0); test: biochemical; type: binding
T2 construct: tissue Mt; Airy Locker Co., Mt; Airy, MD; host or cells: pig dorsal root ganglia
T2 sequence (F1RLJ0 1-841): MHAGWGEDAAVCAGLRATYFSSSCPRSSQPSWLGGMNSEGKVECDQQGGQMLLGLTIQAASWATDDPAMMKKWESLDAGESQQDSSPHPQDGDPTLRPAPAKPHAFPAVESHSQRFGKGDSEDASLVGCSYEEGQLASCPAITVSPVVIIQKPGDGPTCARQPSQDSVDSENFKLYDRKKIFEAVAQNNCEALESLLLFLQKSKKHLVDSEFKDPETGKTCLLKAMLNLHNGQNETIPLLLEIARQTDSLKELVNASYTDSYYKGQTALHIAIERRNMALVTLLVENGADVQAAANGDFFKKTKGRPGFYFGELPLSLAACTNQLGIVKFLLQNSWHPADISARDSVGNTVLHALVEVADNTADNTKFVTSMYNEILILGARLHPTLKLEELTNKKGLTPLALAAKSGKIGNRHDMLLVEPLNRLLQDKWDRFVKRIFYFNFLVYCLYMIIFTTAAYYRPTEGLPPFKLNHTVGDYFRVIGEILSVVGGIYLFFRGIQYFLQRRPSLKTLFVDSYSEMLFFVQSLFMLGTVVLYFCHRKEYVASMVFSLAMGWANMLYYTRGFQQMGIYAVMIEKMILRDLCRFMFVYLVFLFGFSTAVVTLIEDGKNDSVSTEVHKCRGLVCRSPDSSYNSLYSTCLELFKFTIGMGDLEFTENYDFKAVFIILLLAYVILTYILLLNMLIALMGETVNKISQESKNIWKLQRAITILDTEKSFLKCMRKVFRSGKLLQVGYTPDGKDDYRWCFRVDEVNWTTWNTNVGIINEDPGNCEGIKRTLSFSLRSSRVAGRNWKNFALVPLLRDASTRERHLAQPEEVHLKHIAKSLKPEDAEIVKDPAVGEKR
Description: as §1
Subcellular fractions are prepared by a modification of the method of Bastiaensen et al. (Bastiaensen, E., Miserez, B. and De Potter, W., Subcellular fractionation of bovine ganglion stellatum: co-storage of noradrenaline, Met-enkephalin and neuropeptide Y in large `dense-cored` vesicles, Brain Res., 442 (1988) 124-130. ) Briefly: DRG are dissected free from capsule, cut into small pieces with scissors, and then homogenized with a teflon pestle (20 strokes) in ice-cold 0.25 M sucrose/ 20 mM Tris-Cl (pH 7.4) buffer. The homogenate is filtered over surgical gauze; it is then centrifuged for 10 min at 2000 gmax, giving a pellet P1, and again at 10 000 gmax for 15 min giving a pellet P2. The P1 and P2 pellets are saved as nuclear and mitochondrial fractions for binding studies. The resulting supernatant is further centrifuged at 50 000 gmax for 60 min, and then the pellet is harvested as the plasma-membrane enriched microsomal fraction.
as §2, §3, §4
RTX binding is also analyzed in the presence of a fixed, low (60 pM or 300 pM) concentration of [^3 H]RTX and increasing concentrations of non-radioactive RTX or other ligand.

C=C(C)[C@]12C[C@@H](C)[C@@]34O[C@](Cc5ccccc5)(O[C@@H]1[C@@H]3C=C(COC(=O)Cc1ccc(O)c(OC)c1)C[C@]1(O)C(=O)C(C)=C[C@@H]41)O2 [[^3 H]RTX, [^3 H]resiniferatoxin]
Bmax (summary) ([1]; rat DRG): 160 fmol/mg | specific binding to the DRG membranes ([1]; rat DRG): specific, saturable binding | Hill coefficient ([1]; rat DRG membranes): 0.96 | specific binding of the total at the Kd ([1]; rat DRG membranes, at the Kd): approximately 50% | Bmax (Scatchard analysis) ([1]; rat DRG membranes, 3 separate determinations): 150 fmol/mg protein | Kd ([1]; rat DRG membranes, data cumulated from 3 separate determinations, read-out: Kd (Scatchard analysis)): 300 pM | Bmax (curvilinear analysis, LIGAND) ([1]; rat DRG membranes, final parameter estimate): 160 fmol/mg protein | Kd ([1]; rat DRG membranes, one site model, final parameter estimate, read-out: Kd (curvilinear analysis, LIGAND)): 270 pM | Kd ([1]; rat DRG, read-out: Kd (summary)): 270 pM | specific binding ([2]; DRG from pigs): Specific binding is observed | Bmax (summary) ([2]; pig DRG): 730 fmol/mg | specific [^3H]RTX binding after heating of membranes ([2]; pig DRG membranes heated to 55° C. for 10-20 min, 2 experiments): completely inactivates | time at which specific binding is maximal ([2]; pig DRG membranes, 37° C.): 10 min | Hill coefficient ([2]; pig DRG, partially purified membrane preparations): 0.9 | Bmax (Scatchard analysis) ([2]; pig DRG, partially purified membrane preparations, 2 separate determinations): 700 fmol/mg protein | Kd ([2]; pig DRG, partially purified membrane preparations, 2 separate determinations, LIGAND, read-out: Kd (Scatchard analysis)): 1700 pM | Bmax (competition) ([2]; pig DRG, mean±SEM, 4 determinations): 730±80 fmol/ mg protein
